Consider 14 molecules from US4117230A, “Hydantoin derivatives as therapeutic agents” (priority 1977, dated 1978).

Assay [1] has as its system sorbitol levels in the sciatic nerve and lens of diabetic subjects. Briefly: lowering of sorbitol levels in sciatic nerve (peripheral nerves) and lens of diabetic subjects (summary statement). It is filed as in vivo. Conditions: qualitative statement.
For assay [2], the system named is sorbitol accumulation in the sciatic nerve of streptozotocinized (i.e., diabetic) rats. Briefly: inhibition of sorbitol accumulation in the sciatic nerve of acutely streptozotocinized (diabetic) rats. In kind it is in vivo, rat. Conditions: measured at 27 h, vs untreated. As for the experimental part: (§1) The activity of the compounds of the present invention, as agents for the control of chronic diabetic complications, is determined by their ability to successfully pass one or more of the following standard biological and/or pharmacological tests, viz., (1) measuring their ability to inhibit the enzyme activity of isolated aldose reductase; (2) measuring their ability to reduce or inhibit sorbitol accumulation in the sciatic nerve of acutely sterptozotocinized (i.e., diabetic) rats; (3) measuring their ability to reverse already-elevated sorbitol levels in the sciatic nerve and lens of chronic streptozotocin-induced diabetic rats; (4) measuring their ability to prevent or inhibit galactitol formation in the lens of acutely galactosemic rats, and (5) measuring their ability to delay cataract formation and reduce the severity of lens opacities in chronic galactosemic rats.
The following spiro-hydantoin compounds of Preparation C and Examples I-V, VII-IX, XI-XVII, XIX-XXV, XXVII and XXX-XXXIII, respectively, were tested for their ability to reduce or inhibit sorbitol accumulation in the sciatic nerve of streptozotocinized (i.e., diabetic) rats by the procedure essentially described in U.S. Pat. No. 3,821,383. In the present study, the amount of sorbitol accumulation in the sciatic nerves was measured 27 hours after induction of diabetes. The compounds were administered orally at the dose levels indicated at 4, 8 nd 24 hours following the administration of streptozotocin. The results obtained in this manner are presented below in terms of percent inhibition (%) afforded by the test compound as compared to the case where no compound was administered (i.e., the untreated animal where sorbitol levels normally rise from approximately […]. tissue to as high as […]. tissue in the 27-hour test period): […]

The next assay has as its target T1, aldose reductase (Bos taurus, UniProt P16116).
T1 construct: partially purified aldose reductose enzyme obtained from calf lens; from tissue; host or cells: calf lens
Briefly: inhibition of aldose reductase enzyme activity (procedure of S. Hayman et al., modified by K. Sestanj et al.). It is filed as biochemical, calf. Conditions: for inhibition at 100 µM: 10^-4 M; for inhibition at 100 µM / inhibition at 10 µM / inhibition at 1 µM / inhibition at 0.1 µM: calf lens enzyme, read-out: Percent inhibition of aldose reductase enzyme activity; for inhibition at 10 µM: 10^-5 M; for inhibition at 1 µM: 10^-6 M; for inhibition at 0.1 µM: 10^-7 M; for aldose reductase inhibitory activity (in words): qualitative statement. Here is the method:
as §1
Hayman et al., as described in the Journal of Biological Chemistry, Vol. 240, p. […] In every case, the substrate employed ws partially purified aldose reductose enzyme obtained from calf lens.

Assay [3] deals with galactitol levels in the lens of galactosemic subjects. Nature of the assay: lowering of galactitol levels in the lens of galactosemic subjects (summary statement). In kind it is in vivo. Conditions: qualitative statement.
Where [4] appears, read: 0.75 mg./kg. orally at 4, 8 and 24 h after streptozotocin.
The mark [5] stands for this setting: 1.5 mg./kg. orally at 4, 8 and 24 h after streptozotocin.
[6] abbreviates: 5.0 mg./kg. orally at 4, 8 and 24 h after streptozotocin.
Where [7] appears, read: 10 mg./kg. orally at 4, 8 and 24 h after streptozotocin.

With `O=C1NC(=O)C2(CCOc3ccc(Cl)cc32)N1` (stereo not shown) [Ex. XXV, 6-chloro-spiro-[chroman-4,4'-imidazolidine]-2',5'-dione], in assay [1], the “lowering of sorbitol levels in sciatic nerve (peripheral nerves) and lens (in words)” value (shortened to “lowering of sorbitol levels”) was “extremely effective”. Also, in assay [2] (setting [4]), the “Percent inhibition of sorbitol accumulation in the sciatic nerve” value (shortened to “Percent inhibition”) is on record as 64%. In addition, the “Percent inhibition” value in assay [2] (setting [5]) stood at 84%. At aldose reductase, the inhibition at 100 µM was 73%, the inhibition at 10 µM worked out at 81%, the inhibition at 1 µM is 77% and the inhibition at 0.1 µM was 64%. Besides, at aldose reductase, the “aldose reductase inhibitory activity (in words)” value is recorded as “highly potent”. The “lowering of galactitol levels in the lens (in words)” value (“lowering of galactitol levels” for short) in assay [3] is given as “extremely effective”.
On to `O=C1NC(=O)C2(CC[S+]([O-])c3ccc(F)cc32)N1` (stereo not shown) [Ex. XXX, 6'-fluoro-spiro-[imidazolidine-4,4'-thiochroman]-2,5-dione-1'-oxide], for which the “Percent inhibition” value in assay [2] (setting [5]) turned out to be 35%. On aldose reductase, the inhibition at 100 µM was found to be 87%, the inhibition at 10 µM was found to be 80%, the inhibition at 1 µM stood at 64% and the inhibition at 0.1 µM turned out to be 16%.
With `O=C1NC(=O)C2(CCSc3cc(Cl)c(Cl)cc32)N1` (stereo not shown) [Ex. XI, 6',7'-dichloro-spiro-[imidazolidine-4,4'-thiochroman]-2,5-dione], the “lowering of sorbitol levels” value in assay [1] is listed as “extremely effective”. The “Percent inhibition” value in assay [2] (setting [6]) turned out to be 59%. Besides, at aldose reductase, the inhibition at 100 µM turned out to be 67%, the inhibition at 10 µM came out at 84%, the inhibition at 1 µM was found to be 76% and the inhibition at 0.1 µM came out at 69%. The “aldose reductase inhibitory activity (in words)” value at aldose reductase is recorded as “highly potent”. The “lowering of galactitol levels” value in assay [3] is “extremely effective”.
For `O=C1NC(=O)C2(CCSc3ccc(Cl)cc32)N1` (stereo not shown) [Ex. IX, 6'-chloro-spiro-[imidazolidine-4,4'-thiochroman]-2,5-dione], the “Percent inhibition” value in assay [2] (2.5 mg./kg. orally at 4, 8 and 24 h after streptozotocin) is reported as 58%. In addition, on aldose reductase, the inhibition at 100 µM was found to be 79%, the inhibition at 10 µM is 87%, the inhibition at 1 µM amounted to 71% and the inhibition at 0.1 µM worked out at 30%.
On to `O=C1NC(=O)C2(CCc3cc4c(cc32)OCO4)N1` (stereo not shown) [Ex. V, 5',6'-methylenedioxy-spiro-[imidazolidine-4,1'-indan]-2,5-dione], for which the “Percent inhibition” value in assay [2] (setting [6]) is listed as 9%. Further, on aldose reductase, the inhibition at 100 µM was 92%, the inhibition at 10 µM is 67%, the inhibition at 1 µM was 25% and the inhibition at 0.1 µM is 3%.
With `O=C1NC(=O)C2(CCc3ccccc32)N1` (stereo not shown) [Ex. I, spiro-[imidazolidine-4,1'-indan]-2,5-dione], the “lowering of sorbitol levels” value in assay [1] is listed as “extremely effective”. Also, the “Percent inhibition” value in assay [2] (setting [5]) is recorded as 29%. Also, in assay [2] (setting [6]), the “Percent inhibition” value came out at 52%. Further, the “Percent inhibition” value in assay [2] (setting [7]) stood at 67%. On aldose reductase, the inhibition at 100 µM was 73%, the inhibition at 10 µM came to 39%, the inhibition at 1 µM stood at 18% and the inhibition at 0.1 µM was -11%. Further, the “aldose reductase inhibitory activity (in words)” value at aldose reductase was “highly potent”. For the same molecule, the “lowering of galactitol levels” value in assay [3] is “extremely effective”.
Take `O=C1NC(=O)C2(CCCc3ccccc32)N1` (stereo not shown) [Prep. C, 3',4'-Dihydro-spiro-[imidazolidine-4,1'(2'H)-naphthalene]-2,5-dione, reference compound]: the “Percent inhibition” value in assay [2] (setting [6]) is listed as 3%. Besides, in assay [2] (setting [7]), the “Percent inhibition” value turned out to be 40%. In addition, on aldose reductase, the inhibition at 100 µM was 72%, the inhibition at 10 µM came out at 34%, the inhibition at 1 µM turned out to be 13% and the inhibition at 0.1 µM is 7%.
On to `O=C1NC(=O)C2(CCOc3c(Cl)cc(Cl)cc32)N1` (stereo not shown) [Ex. XXIV, 6,8-dichloro-spiro-[chroman-4,4'-imidazolidine]-2',5'-dione], for which, in assay [1], the “lowering of sorbitol levels” value was “extremely effective”. The “Percent inhibition” value in assay [2] (setting [4]) is recorded as 82%. Also, on aldose reductase, the inhibition at 100 µM was 85%, the inhibition at 10 µM is 90%, the inhibition at 1 µM is 78% and the inhibition at 0.1 µM was found to be 81%. Further, on aldose reductase, the “aldose reductase inhibitory activity (in words)” value was “highly potent”. Moreover, the “lowering of galactitol levels” value in assay [3] is on record as “extremely effective”.
Turning to `COc1cc2c(cc1OC)C1(CC2)NC(=O)NC1=O` (stereo not shown) [Ex. IV, 5',6'-dimethoxy-spiro-[imidazolidine-4,1'-indan]-2,5-dione], in assay [2] (setting [6]), the “Percent inhibition” value was 33%. Also, the “Percent inhibition” value in assay [2] (setting [7]) is given as 49%. On aldose reductase, the inhibition at 100 µM worked out at 90%, the inhibition at 10 µM was determined as 81%, the inhibition at 1 µM came to 35% and the inhibition at 0.1 µM stood at 9%.
For the molecule `O=C1NC(=O)C2(CCSc3c(Cl)cccc32)N1` (stereo not shown) [Ex. XIII, 8'-chloro-spiro-[imidazolidine-4,4'-thiochroman]-2,5-dione], the “Percent inhibition” value in assay [2] (setting [5]) was 5%. The inhibition at 100 µM at aldose reductase was 60%.
As for `O=C1NC(=O)C2(CCOc3cc(Cl)c(Cl)cc32)N1` (stereo not shown) [Ex. XXIII, 6,7-dichloro-spiro-[chroman-4,4'-imidazolidine]-2',5'-dione], the “lowering of sorbitol levels” value in assay [1] is “extremely effective”. In addition, the “Percent inhibition” value in assay [2] (setting [5]) was found to be 64%. In addition, at aldose reductase, the inhibition at 100 µM is 59%, the inhibition at 10 µM came to 96%, the inhibition at 1 µM came to 91% and the inhibition at 0.1 µM is 84%. In addition, on aldose reductase, the “aldose reductase inhibitory activity (in words)” value is listed as “highly potent”. In assay [3], the “lowering of galactitol levels” value is recorded as “extremely effective”.
As to `O=C1NC(=O)C2(CS(=O)(=O)c3ccccc32)N1` (stereo not shown) [Ex. XXXIII, spiro-[imidazolidine-4,3'-thioindan]-2,5-dione-1,1'-dioxide], the “Percent inhibition” value in assay [2] (setting [6]) is listed as 5%. Also, at aldose reductase, the inhibition at 100 µM was 81%, the inhibition at 10 µM stood at 64%, the inhibition at 1 µM came out at 22% and the inhibition at 0.1 µM was 4%.
With `O=C1NC(=O)C2(CCCc3ncccc32)N1` (stereo not shown) [Ex. XV, 7',8'-dihydro-spiro[imidazolidine-4,5'(6H)-quinoline]-2,5-dione], the “Percent inhibition” value in assay [2] (setting [6]) is 5%. Moreover, the “Percent inhibition” value in assay [2] (setting [7]) is 52%. At aldose reductase, the inhibition at 100 µM was determined as 83%, the inhibition at 10 µM came out at 54%, the inhibition at 1 µM was 9% and the inhibition at 0.1 µM was -2%.
With `O=C1NC(=O)C2(CCc3ccc(F)cc32)N1` (stereo not shown) [Ex. III, 6'-fluoro-spiro-[imidazolidine-4,1'-indan]-2,5-dione], the “Percent inhibition” value in assay [2] (setting [6]) is listed as 45%. Also, at aldose reductase, the inhibition at 100 µM worked out at 74%, the inhibition at 10 µM was determined as 12%, the inhibition at 1 µM is 22% and the inhibition at 0.1 µM is -1%.
